Measured values reported in patent publication US20180273534A1, “PYRAZOLOPYRIDINE SULFONAMIDES AS NEMATICIDES” (BAYER CROPSCIENCE AKTIENGESELLSCHAFT, priority 2014, published 2018).
“And” between values parts separate entries of the source, which are not always exact repeats. Equal values may be shown once.

Test system: Meloidogyne incognita
Experiment: Meloidogyne incognita test (sand, salad seedlings, gall formation)
Assay type: in vivo
Conditions: application rate 20 ppm, after 14 days, 100% = no galls, 0% = galls equal to untreated control
Procedure: Meloidogyne Incognita—Test
Solvent: 125.0 parts by weight of acetone
To produce a suitable preparation of active compound, 1 part by weight of active compound is mixed with the stated amount of solvent, and the concentrate is diluted with water to the desired concentration.
Vessels are filled with sand, a solution of the active ingredient, a suspension containing eggs and larvae of the southern root-knot nematode (Meloidogyne incognita) and salad seeds. The salad seeds germinate and the seedlings grow. Galls develop in the roots.
After 14 days the nematicidal activity is determined on the basis of the percentage of gall formation. 100% means no galls were found and 0% means the number of galls found on the roots of the treated plants was equal to that in untreated control plants.

| SMILES | nematicidal activity on the basis of the percentage of gall formation |
| --- | --- |
| O=C(NS(=O)(=O)c1ccccc1Cl)c1cc2cc(C(F)(F)F)ccn2n1 [Example I-1, N-[(2-chlorophenyl)sulfonyl]-5-(trifluoromethyl)pyrazolo[1,5-a]pyridine-2-carboxamide] | 100% |
| O=C(NS(=O)(=O)c1ncc(C(F)(F)F)cc1Cl)c1cc2c(Cl)cc(C(F)(F)F)cn2n1 [Example I-2] | 90% |
| COc1ccc(Cl)c(S(=O)(=O)NC(=O)c2cc3c(Cl)cc(C(F)(F)F)cn3n2)c1 [Example I-3] | 100% and 90% |
| O=C(NS(=O)(=O)c1ccccc1C(F)(F)F)c1cc2c(Cl)cc(C(F)(F)F)cn2n1 [Example I-4] | 90% |
| O=C(NS(=O)(=O)c1ccccc1OC(F)(F)F)c1cc2c(Cl)cc(C(F)(F)F)cn2n1 [Example I-5] | 90% |
| COc1ccccc1S(=O)(=O)NC(=O)c1cc2c(Cl)cc(C(F)(F)F)cn2n1 [Example I-8] | 90% |
| O=C(NS(=O)(=O)c1ccc(Cl)cc1)c1cc2c(Cl)cc(C(F)(F)F)cn2n1 [Example I-9] | 100% and 90% |
| Cc1ccccc1S(=O)(=O)NC(=O)c1cc2c(Cl)cc(C(F)(F)F)cn2n1 [Example I-10] | 90% |
| O=C(NS(=O)(=O)c1cccc(Cl)c1)c1cc2c(Cl)cc(C(F)(F)F)cn2n1 [Example I-12] | 90% |
| O=C(NS(=O)(=O)c1cc2c(cc1Cl)OC(F)(F)O2)c1cc2c(Cl)cc(C(F)(F)F)cn2n1 [Example I-14] | 90% |
| CCS(=O)(=O)NC(=O)c1cc2c(Cl)cc(C(F)(F)F)cn2n1 [Example I-16] | 100% |
| O=C(NS(=O)(=O)C1CC1)c1cc2c(Cl)cc(C(F)(F)F)cn2n1 [Example I-17] | 100% |
| O=C(NS(=O)(=O)c1c(Cl)cccc1Cl)c1cc2c(Cl)cc(C(F)(F)F)cn2n1 [Example I-18] | 100% |
| O=C(NS(=O)(=O)c1ccccc1Cl)c1cc2cc(C(F)(F)F)cc(Cl)n2n1 [Example I-19] | 100% |
| O=C(NS(=O)(=O)c1ccc(Cl)cc1)c1cc2cc(C(F)(F)F)cc(Cl)n2n1 [Example I-20] | 90% |
| O=C(NS(=O)(=O)c1c(Cl)cccc1Cl)c1cc2cc(C(F)(F)F)cc(Cl)n2n1 [Example I-21] | 100% |
| O=C(NS(=O)(=O)c1cc(Cl)ccc1Cl)c1cc2cc(C(F)(F)F)cc(Cl)n2n1 [Example I-22] | 100% |
| COc1ccc(Cl)c(S(=O)(=O)NC(=O)c2cc3cc(C(F)(F)F)cc(Cl)n3n2)c1 [Example I-23] | 100% |
| O=C(NS(=O)(=O)c1c(Cl)cccc1Cl)c1cc2cc(C(F)(F)F)ccn2n1 [Example I-25] | 100% |
| O=C(NS(=O)(=O)c1cc(Cl)ccc1Cl)c1cc2cc(C(F)(F)F)ccn2n1 [Example I-26] | 100% |
| COc1ccc(Cl)c(S(=O)(=O)NC(=O)c2cc3cc(C(F)(F)F)ccn3n2)c1 [Example I-27] | 100% |

| SMILES | nematicidal activity on the basis of the percentage of gall formation |
| --- | --- |
| O=C(NS(=O)(=O)C1CC1)c1cc2cc(C(F)(F)F)ccn2n1 [Example I-29] | 90% |
| O=C(NS(=O)(=O)c1cccc(Cl)c1)c1cc2cc(C(F)(F)F)cc(Cl)n2n1 [Example I-30] | 100% and 90% |
| CCS(=O)(=O)NC(=O)c1cc2cc(C(F)(F)F)cc(Cl)n2n1 [Example I-32] | 90% |
| O=C(NS(=O)(=O)c1cc(C(F)(F)F)ccc1Cl)c1cc2cc(C(F)(F)F)ccn2n1 [Example I-33] | 100% |
| CCOc1ccc(Cl)c(S(=O)(=O)NC(=O)c2cc3cc(C(F)(F)F)ccn3n2)c1 [Example I-34] | 100% |
| CCCOc1ccc(Cl)c(S(=O)(=O)NC(=O)c2cc3cc(C(F)(F)F)ccn3n2)c1 [Example I-35] | 100% |
| CCc1ccc(Cl)c(S(=O)(=O)NC(=O)c2cc3cc(C(F)(F)F)ccn3n2)c1 [Example I-36] | 100% |
| COc1ccc(Br)c(S(=O)(=O)NC(=O)c2cc3cc(C(F)(F)F)ccn3n2)c1 [Example I-37] | 100% |
| COc1ccc(F)c(S(=O)(=O)NC(=O)c2cc3cc(C(F)(F)F)ccn3n2)c1 [Example I-38] | 100% |
| CSc1cccc(Cl)c1S(=O)(=O)NC(=O)c1cc2cc(C(F)(F)F)ccn2n1 [Example I-39] | 100% |
| CCSc1cccc(Cl)c1S(=O)(=O)NC(=O)c1cc2cc(C(F)(F)F)ccn2n1 [Example I-40] | 100% |
| CC(C)Sc1cccc(Cl)c1S(=O)(=O)NC(=O)c1cc2cc(C(F)(F)F)ccn2n1 [Example I-41] | 100% |
| CC(C)Nc1cccc(F)c1S(=O)(=O)NC(=O)c1cc2cc(C(F)(F)F)ccn2n1 [Example I-42] | 100% |
| O=C(NS(=O)(=O)c1c(F)cccc1Cl)c1cc2cc(C(F)(F)F)ccn2n1 [Example I-43] | 100% |
| CCOc1ccc(Cl)c(S(=O)(=O)NC(=O)c2cc3cc(C(F)(F)F)cc(Cl)n3n2)c1 [Example I-44] | 90% |
| CCCOc1ccc(Cl)c(S(=O)(=O)NC(=O)c2cc3cc(C(F)(F)F)cc(Cl)n3n2)c1 [Example I-45] | 100% |
| COc1ccc(Cl)c(S(=O)(=O)NC(=O)c2cc3cc(Cl)cc(Cl)n3n2)c1 [Example I-49] | 90% |
| O=C(NS(=O)(=O)c1cc(Cl)ccc1Cl)c1cc2ccc(C(F)(F)F)cn2n1 [Example I-51] | 90% |
| O=C(NS(=O)(=O)c1c(Cl)cccc1Cl)c1cc2ccc(C(F)(F)F)cn2n1 [Example I-52] | 90% |
| CCOc1ccc(Cl)c(S(=O)(=O)NC(=O)c2cc3cc(Cl)cc(Cl)n3n2)c1 [Example I-57] | 100% |
| CCCOc1ccc(Cl)c(S(=O)(=O)NC(=O)c2cc3cc(Cl)cc(Cl)n3n2)c1 [Example I-58] | 100% |

| SMILES | nematicidal activity on the basis of the percentage of gall formation |
| --- | --- |
| CCc1ccc(Cl)c(S(=O)(=O)NC(=O)c2cc3cc(Cl)cc(Cl)n3n2)c1 [Example I-59] | 100% |
| CSc1ccc(Cl)c(S(=O)(=O)NC(=O)c2cc3cc(Cl)cc(Cl)n3n2)c1 [Example I-60] | 100% |
| CCc1ccc(Cl)c(S(=O)(=O)NC(=O)c2cc3cc(C(F)(F)F)cc(Cl)n3n2)c1 [Example I-62] | 100% |
| CCSc1cccc(Cl)c1S(=O)(=O)NC(=O)c1cc2cc(C(F)(F)F)cc(Cl)n2n1 [Example I-63] | 100% |
| CC(C)Sc1cccc(Cl)c1S(=O)(=O)NC(=O)c1cc2cc(C(F)(F)F)cc(Cl)n2n1 [Example I-64] | 100% |
| O=C(NS(=O)(=O)c1c(F)cccc1Cl)c1cc2cc(C(F)(F)F)cc(Cl)n2n1 [Example I-65] | 100% |
| CC(C)Nc1cccc(F)c1S(=O)(=O)NC(=O)c1cc2cc(Cl)cc(Cl)n2n1 [Example I-66] | 90% |
| O=C(NS(=O)(=O)c1c(F)cccc1Cl)c1cc2cc(Cl)cc(Cl)n2n1 [Example I-67] | 90% |
| COc1ccc(F)c(S(=O)(=O)NC(=O)c2cc3cc(Cl)cc(Cl)n3n2)c1 [Example I-68] | 100% |
| COc1ccc(Br)c(S(=O)(=O)NC(=O)c2cc3cc(Cl)cc(Cl)n3n2)c1 [Example I-69] | 100% |
| COc1ccc(Br)c(S(=O)(=O)NC(=O)c2cc3cc(C(F)(F)F)cc(Cl)n3n2)c1 [Example I-70] | 100% |
| CSc1cccc(Cl)c1S(=O)(=O)NC(=O)c1cc2cc(C(F)(F)F)cc(Cl)n2n1 [Example I-71] | 100% |
| O=C(NS(=O)(=O)c1cc(C(F)(F)F)ccc1Cl)c1cc2cc(C(F)(F)F)cc(Cl)n2n1 [Example I-72] | 100% |
| O=C(NS(=O)(=O)c1cc(C(F)(F)F)ccc1Br)c1cc2cc(C(F)(F)F)ccn2n1 [Example I-73] | 100% |
| COc1ccc(F)c(S(=O)(=O)NC(=O)c2cc3cc(C(F)(F)F)cc(Cl)n3n2)c1 [Example I-74] | 100% |
| CCc1ccc(C)c(S(=O)(=O)NC(=O)c2cc3cc(Cl)cc(Cl)n3n2)c1 [Example I-75] | 100% |
| CSc1cccc(Cl)c1S(=O)(=O)NC(=O)c1cc2cc(Cl)cc(Cl)n2n1 [Example I-76] | 90% |
| CCc1ccc(C)c(S(=O)(=O)NC(=O)c2cc3cc(C(F)(F)F)cc(Cl)n3n2)c1 [Example I-77] | 100% |
| CCc1ccc(C)c(S(=O)(=O)NC(=O)c2cc3cc(C(F)(F)F)ccn3n2)c1 [Example I-78] | 100% |
